This passage reports EC50 results from US8697691B2, “Alkyl 3-((2-amidoethyl)amino)-8-azabicyclo[3.2.1]octane-8-carboxylate analogs as selective M1 agonists and methods of making and using same” (Vanderbilt University, priority 2009, dated 2014).

The assay deals with T1, hM4 receptor (Homo sapiens, UniProt P08173).
T1 construct: host or cells: CHO-K1, additionally stably transfected with Gqi5
T1 sequence (P08173 1-479): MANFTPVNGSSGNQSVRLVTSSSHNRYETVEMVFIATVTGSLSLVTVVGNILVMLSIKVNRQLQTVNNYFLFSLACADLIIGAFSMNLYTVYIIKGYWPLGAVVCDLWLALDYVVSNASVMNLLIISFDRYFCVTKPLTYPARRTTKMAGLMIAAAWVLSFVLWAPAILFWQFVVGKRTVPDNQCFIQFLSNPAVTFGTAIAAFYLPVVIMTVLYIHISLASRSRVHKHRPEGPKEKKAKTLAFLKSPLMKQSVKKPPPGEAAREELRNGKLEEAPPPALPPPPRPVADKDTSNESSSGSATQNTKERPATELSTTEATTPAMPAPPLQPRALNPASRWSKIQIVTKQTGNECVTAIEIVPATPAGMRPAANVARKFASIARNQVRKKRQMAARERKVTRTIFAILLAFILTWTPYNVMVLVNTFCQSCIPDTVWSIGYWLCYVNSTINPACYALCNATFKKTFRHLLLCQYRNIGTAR
The experiment in a line: Calcium mobilization assay, CHO-K1 cells stably expressing hM4-Gqi5. The assay is classed as cell-based. The text has this: Chinese hamster ovary (CHO-K1) cells stably expressing rat (r)M1 were purchased from the American Type Culture Collection and cultured according to their indicated protocol. CHO cells stably expressing human (h)M2, hM3, and hM5 were described previously (Levey et al., 1991); hM1 and hM4 cDNAs were purchased from Missouri S&T cDNA Resource; rM4 cDNA was provided by T. I. Bonner (National Institutes of Health, Bethesda, Md.). hM1, hM4, and rM4 cDNAs were used to stably transfect CHO-K1 cells purchased from the American Type Culture Collection using Lipofectamine2000. […]
For low throughput measurement of agonist-evoked increases in intracellular calcium, CHO-K1 cells stably expressing muscarinic receptors were plated in 100 μL of growth medium at 5×10^4 (rM1, hM3, and hM5) or 6×10^4 cells per well (rM1 Y381A, hM2, and rM4) in Costar 96-well black-walled, tissue culture (TC)-treated, clear-bottom plates (Fisher). […] For calcium fluorescence measurements, CRCs of compounds (50 μl, 2×) were added 19 s after the beginning of data collection via a Flexstation II (Molecular Devices, Sunnyvale, Calif.). Fluorescence imaging continued for a total of 130 s acquisition time using an excitation wavelength of 488 nm, an emission wavelength of 525 nm, and a cutoff wavelength of 515 nm. […]
Background: A change in cytosolic calcium serves as a functional read-out for many receptors and channels.

The EC50 is the concentration needed to bring the measured effect to its halfway point. Regarding `CCOC(=O)N1[C@@H]2CC[C@H]1C[C@H](NCCNC(=O)c1ccccc1)C2` [Example 26, ethyl 3-((3-exo)-(2-benzamidoethyl)amino)-8-azabicyclo[3.2.1]octane-8-carboxylate], the EC50 was over 10 µM. As for `CCOC(=O)N1[C@@H]2CC[C@H]1C[C@@H](NCCNC(=O)c1ccccc1)C2` [Example 27, ethyl 3-((3-endo)-(2-benzamidoethyl)amino)-8-azabicyclo[3.2.1]octane-8-carboxylate], the figure is about 3 µM.
